Measurements taken from patent publication US8864853B2, “Additive mixture for the bactericidal and anticorrosive additization of fuels” (l'Air Liquide Societe Anonyme pour l'etude et …, priority 2009, dated 2014).

Test: Example 1: visual appearance of diesel with Cu or brass sheet
Assay type: physicochemical
Settings: evaluation of Example 1; diesel oil with 5% FAME; time delay, concentration-dependent, turbulent flow
Protocol: Materials used: • 3,3′-methylenebis(5-methyloxazolidine) • brass 63 (100×20×1 mm), Cat. No.: 16-24 from Riegger Industriehandel, Reinbek, Federal Republic of Germany • E-copper ((100×20×1 mm), Cat. No.: 15-54 from Riegger • diesel fuel to EN 590, with 5% (V/V) fatty acid methyl ester
Procedure: The solutions and the metal sheet were each introduced into a 500 ml wide-neck bottle. Solutions 1A-1C were not stirred; solutions 1D-1G were stirred with a magnetic stirrer. The appearance of the solutions was assessed visually.

CC1CN(CN2COC(C)C2)CO1 (stereo not shown) [3,3′-methylenebis(5-methyloxazolidine)]
compatibility as an additive to diesel oil in contact with copper or nonferrous metal: incompatible
